From article PMC2396520, “Antibody Complementarity-Determining Regions (CDRs) Can Display Differential Antimicrobial, Antiviral and Antitumor Activities” (PLoS ONE, 2008)
Where a SMILES comes first, the peptide text is derived from it.

Tests used:
[1] = tested on: B16F10-Nex2 murine melanoma cells; format: cell-based; settings: for EC50: 12 h
Method: Each peptide was tested in triplicate. After 12 h, the cytotoxic activities of the peptides were determined by measuring cell viability by Trypan Blue exclusion.

Candida albicans UP10 = format: cell-based; settings: for Anti-Candida activity (%) at 100 µg/mL: C7/pc42 H2 alanine-substituted derivatives, 37°C, 6 h, CFU assay, triplicate; for EC50: UP10, 6 h; for EC50asd/EC50H2: anti-Candida EC50 of the derivative relative to C7/pc42 H2
Method: The alanine substituted derivatives (asd), defined according to the position held by the alanine-substituted aminoacid, were tested in the same biological assays to critically establish the functional relevance of each residue [5]. In vitro microbicidal activity of CDR peptides and selected asd against C. albicans UP 10 (clinical isolate from the fungi collection of the University of Parma) and C. albicans NCPF 3153 (National Collection of Pathogenic Fungi, Bristol, UK) were used for the in vitro experiments.
The microbicidal activity of synthetic CDRs against C. albicans strains was preliminarily evaluated by testing 100 µg/mL of each synthetic peptide by colony forming unit (CFU) assays as previously described [5]. Briefly, 10 µL of a distilled water suspension containing ∼5×10^4/mL germinating yeast cells were added to 90 µL of distilled water containing the synthetic peptide to be tested. Yeast suspensions were incubated at 37°C for 6 h. After incubation, the cell suspensions were plated on Sabouraud dextrose agar, incubated at 30°C and observed for CFU determination after 48–72 hours. Each assay was carried out in triplicate. […] EC50 was calculated by nonlinear regression analysis using Graph Pad Prism 4.01 software, San Diego, CA, USA.

Row | EC50 [1] [µM] | EC50 (Candida albicans UP10) [µM] | EC50asd/EC50H2 (Candida albicans UP10) | Compound | Anti-Candida activity (%) at 100 µg/mL (Candida albicans UP10) [%] | apoptotic activity in melanoma cells ([1]; data not shown)
1 | 73.5 | 28.5 | 6.81 | CC[C@H](C)[C@H](NC(=O)[C@@H](N)Cc1ccc(O)cc1)C(=O)N[C@@H](CO)C(=O)N[C@@H](CS)C(=O)N[C@@H](C)C(=O)N[C@@H](CC(N)=O)C(=O)NCC(=O)N[C@@H](C)C(=O)N[C@H](C(=O)N[C@@H](CO)C(=O)N[C@@H](Cc1ccc(O)cc1)C(=O)N[C@@H](CC(N)=O)C(=O)N[C@@H](CCC(N)=O)C(=O)N[C@@H](CCCCN)C(=O)N[C@@H](Cc1ccccc1)C(=O)N[C@@H](CCCCN)C(=O)O)[C@@H](C)O [Y5A] (H-YISCANGATSYNQKFK-OH; N-terminus and C-terminus assumed) | 98.10 | 
2 | 113 | 47.6 | 11.35 | CC[C@H](C)[C@H](NC(=O)[C@@H](N)Cc1ccc(O)cc1)C(=O)N[C@@H](CO)C(=O)N[C@@H](CS)C(=O)N[C@@H](Cc1ccc(O)cc1)C(=O)N[C@@H](CC(N)=O)C(=O)NCC(=O)N[C@@H](C)C(=O)N[C@H](C(=O)N[C@@H](CO)C(=O)N[C@@H](C)C(=O)N[C@@H](CC(N)=O)C(=O)N[C@@H](CCC(N)=O)C(=O)N[C@@H](CCCCN)C(=O)N[C@@H](Cc1ccccc1)C(=O)N[C@@H](CCCCN)C(=O)O)[C@@H](C)O [Y11A] (H-YISCYNGATSANQKFK-OH; N-terminus and C-terminus assumed) | 55.70 | 
3 |  | 12 |  | CC(C)C[C@H](NC(=O)[C@H](CC(N)=O)NC(=O)[C@H](CO)NC(=O)[C@@H](NC(=O)[C@@H](N)CC(C)C)C(C)C)C(=O)N[C@@H](CCC(=O)O)C(=O)N[C@@H](CO)C(=O)O [pc42 L2] (H-LVSNLES-OH) |  | 
4 |  | 0.78 |  | CSCC[C@H](NC(=O)[C@H](Cc1ccc(O)cc1)NC(=O)[C@H](CO)NC(=O)[C@H](Cc1ccc(O)cc1)NC(=O)CNC(=O)[C@H](CO)NC(=O)[C@@H](NC(=O)[C@H](CO)NC(=O)[C@@H](NC(=O)[C@H](CO)NC(=O)[C@H](CCCCN)NC(=O)[C@H](CO)NC(=O)[C@H](C)NC(=O)[C@H](CCCNC(=N)N)NC(=O)[C@@H](N)Cc1ccc(O)cc1)C(C)C)[C@@H](C)O)C(=O)N[C@@H](Cc1c[nH]cn1)C(=O)O [pc42 L1] (H-YRASKSVSTSGYSYMH-OH) |  | 

The next lines start with the compound.

Row | Compound | EC50 [1] [µM] | EC50 (Candida albicans UP10) [µM] | EC50asd/EC50H2 (Candida albicans UP10) | Anti-Candida activity (%) at 100 µg/mL (Candida albicans UP10) [%] | apoptotic activity in melanoma cells ([1]; data not shown)
5 | CC[C@H](C)[C@H](NC(=O)[C@@H](N)Cc1ccc(O)cc1)C(=O)N[C@@H](CO)C(=O)N[C@@H](CS)C(=O)N[C@@H](Cc1ccc(O)cc1)C(=O)N[C@@H](CC(N)=O)C(=O)NCC(=O)N[C@@H](C)C(=O)N[C@H](C(=O)N[C@@H](CO)C(=O)N[C@@H](Cc1ccc(O)cc1)C(=O)N[C@@H](C)C(=O)N[C@@H](CCC(N)=O)C(=O)N[C@@H](CCCCN)C(=O)N[C@@H](Cc1ccccc1)C(=O)N[C@@H](CCCCN)C(=O)O)[C@@H](C)O [N12A] (H-YISCYNGATSYAQKFK-OH; N-terminus and C-terminus assumed) | 125 | 6.48 | 1.55 | 100.00 | 
6 | N=C(N)NCCC[C@H](NC(=O)[C@H](CO)NC(=O)[C@H](CCCNC(=N)N)NC(=O)[C@@H]1CCCN1C(=O)[C@H](Cc1ccc(O)cc1)NC(=O)[C@H](CO)NC(=O)[C@H](Cc1ccc(O)cc1)NC(=O)[C@H](CC(=O)O)NC(=O)[C@@H](N)CC(N)=O)C(=O)O [C7 L3] (H-NDYSYPRSR-OH) |  | 20.2 |  |  | 
7 | CC[C@H](C)[C@H](NC(=O)[C@@H](N)Cc1ccc(O)cc1)C(=O)N[C@@H](CO)C(=O)N[C@@H](CS)C(=O)N[C@@H](Cc1ccc(O)cc1)C(=O)N[C@@H](CC(N)=O)C(=O)NCC(=O)N[C@@H](C)C(=O)N[C@H](C(=O)N[C@@H](CO)C(=O)N[C@@H](Cc1ccc(O)cc1)C(=O)N[C@@H](CC(N)=O)C(=O)N[C@@H](CCC(N)=O)C(=O)N[C@@H](CCCCN)C(=O)N[C@@H](C)C(=O)N[C@@H](CCCCN)C(=O)O)[C@@H](C)O [F15A] (H-YISCYNGATSYNQKAK-OH; N-terminus and C-terminus assumed) | 1000 | 0.904 | 0.22 | 100.00 | 
8 | N=C(N)NCCC[C@H](NC(=O)[C@H](CCC(N)=O)NC(=O)[C@@H](N)CCC(N)=O)C(=O)N[C@@H](CO)C(=O)N[C@@H](CC(N)=O)C(=O)N[C@@H](Cc1c[nH]c2ccccc12)C(=O)N1CCC[C@H]1C(=O)N[C@@H](CCCNC(=N)N)C(=O)N[C@@H](CO)C(=O)O [HuA L3] (H-QQRSNWPRS-OH) |  | 5.11 |  |  | 
9 | CC[C@H](C)[C@H](NC(=O)[C@@H](N)Cc1ccc(O)cc1)C(=O)N[C@@H](CO)C(=O)N[C@@H](CS)C(=O)N[C@@H](Cc1ccc(O)cc1)C(=O)N[C@@H](C)C(=O)NCC(=O)N[C@@H](C)C(=O)N[C@H](C(=O)N[C@@H](CO)C(=O)N[C@@H](Cc1ccc(O)cc1)C(=O)N[C@@H](CC(N)=O)C(=O)N[C@@H](CCC(N)=O)C(=O)N[C@@H](CCCCN)C(=O)N[C@@H](Cc1ccccc1)C(=O)N[C@@H](CCCCN)C(=O)O)[C@@H](C)O [N6A] (H-YISCYAGATSYNQKFK-OH; N-terminus and C-terminus assumed) | 76.9 | 1.54 | 0.37 | 100.00 | 
10 | CC(C)C[C@H](NC(=O)[C@H](CC(C)C)NC(=O)[C@H](CO)NC(=O)[C@H](CCC(N)=O)NC(=O)[C@H](CO)NC(=O)[C@H](CO)NC(=O)[C@@H](N)CCCCN)C(=O)N[C@@H](CC(N)=O)C(=O)N[C@@H](CO)C(=O)NCC(=O)N[C@@H](CC(N)=O)C(=O)N[C@@H](CCC(N)=O)C(=O)N[C@@H](CCCCN)C(=O)N[C@@H](CC(N)=O)C(=O)N[C@@H](Cc1ccc(O)cc1)C(=O)N[C@@H](CC(C)C)C(=O)N[C@H](C(=O)O)[C@@H](C)O [C7 L1] (H-KSSQSLLNSGNQKNYLT-OH) |  | 15.2 |  |  | 
11 | CC[C@H](C)[C@H](NC(=O)[C@H](C)N)C(=O)N[C@@H](CO)C(=O)N[C@@H](CS)C(=O)N[C@@H](Cc1ccc(O)cc1)C(=O)N[C@@H](CC(N)=O)C(=O)NCC(=O)N[C@@H](C)C(=O)N[C@H](C(=O)N[C@@H](CO)C(=O)N[C@@H](Cc1ccc(O)cc1)C(=O)N[C@@H](CC(N)=O)C(=O)N[C@@H](CCC(N)=O)C(=O)N[C@@H](CCCCN)C(=O)N[C@@H](Cc1ccccc1)C(=O)N[C@@H](CCCCN)C(=O)O)[C@@H](C)O [Y1A] (H-AISCYNGATSYNQKFK-OH; N-terminus and C-terminus assumed) | 71.4 | 6.21 | 1.48 | 99.37 | 
12 | CC[C@H](C)[C@H](NC(=O)[C@@H](N)Cc1ccc(O)cc1)C(=O)N[C@@H](CO)C(=O)N[C@@H](CS)C(=O)N[C@@H](Cc1ccc(O)cc1)C(=O)N[C@@H](CC(N)=O)C(=O)NCC(=O)N[C@@H](C)C(=O)N[C@H](C(=O)N[C@@H](CO)C(=O)N[C@@H](Cc1ccc(O)cc1)C(=O)N[C@@H](CC(N)=O)C(=O)N[C@@H](C)C(=O)N[C@@H](CCCCN)C(=O)N[C@@H](Cc1ccccc1)C(=O)N[C@@H](CCCCN)C(=O)O)[C@@H](C)O [Q13A] (H-YISCYNGATSYNAKFK-OH; N-terminus and C-terminus assumed) | 128 | 3.91 | 0.93 | 100.00 | 
13 | SYNQKFK [C-terminal peptide of C7/pc42 H2] |  |  |  |  | not apoptotic by itself
